Source: ChEMBL document CHEMBL1629661, “Carbapenem resistance among Pseudomonas aeruginosa strains from India: evidence for nationwide endemicity of multiple metallo-beta-lactamase clones (VIM-2, -5, -6, and -11 and the newly characterized VIM-18)” (2009)
≈ marks a conversion by molar mass, not a printed value.

Tests used:
Type in all cases: functional
[1] = tested on: Escherichia coli; test: Ratio of MIC for Escherichia coli harboring beta-lactamase VIM-2 to MIC for Escherichia coli harboring beta-lactamase VIM-18
[2] = tested on: Escherichia coli; test: Antimicrobial activity against Escherichia coli harboring beta-lactamase VIM-2 by Etest
[3] = tested on: Escherichia coli; test: Antimicrobial activity against Escherichia coli harboring plasmid pPCRScript by Etest
[4] = tested on: Pseudomonas aeruginosa; test: Antimicrobial activity against Pseudomonas aeruginosa isolate 243-31C expressing beta-lactamase VIM-18 isolated from sputum of patient by broth microdilution method
[5] = tested on: Escherichia coli; test: Antimicrobial activity against Escherichia coli harboring beta-lactamase VIM-18 by Etest
[6] = tested on: Pseudomonas aeruginosa; test: Antimicrobial activity against Pseudomonas aeruginosa isolate 243-31C expressing beta-lactamase VIM-18 isolated from sputum of patient by broth microdilution method in presence of beta-lactamase inhibitor Tazobactam

Molecule: C[C@@H](O)[C@H]1C(=O)N2C(C(=O)O)=C(S[C@@H]3CN[C@H](C(=O)Nc4cccc(C(=O)O)c4)C3)[C@H](C)[C@H]12
- Ratio [1]: 9
- MIC [2]: 0.25 µg/mL (≈ 0.526 µM)
- MIC [3]: 0.006 µg/mL (≈ 0.0126 µM)
- MIC [4]: > 8 µg/mL
- MIC [5]: 0.016 µg/mL (≈ 0.0336 µM)

Molecule: CC1(C)S[C@@H]2[C@H](NC(=O)[C@H](N)c3ccccc3)C(=O)N2[C@H]1C(=O)O [AMPICILLIN]
- MIC [2]: > 256 µg/mL
- MIC [3]: 4 µg/mL (≈ 11.4 µM)
- MIC [4]: > 16 µg/mL
- MIC [5]: 64 µg/mL (≈ 183 µM)

Molecule: C[C@H]1[C@H](NC(=O)/C(=N\OC(C)(C)C(=O)O)c2csc(N)n2)C(=O)N1S(=O)(=O)O [AZTREONAM]
- MIC [2]: 0.032 µg/mL (≈ 0.0735 µM)
- MIC [4]: 16 µg/mL (≈ 36.7 µM)
- MIC [5]: 0.032 µg/mL (≈ 0.0735 µM)

Molecule: CN(C)[C@@H]1C(O)=C(C(N)=O)C(=O)[C@@]2(O)C(O)=C3C(=O)c4c(O)cccc4[C@@](C)(O)[C@H]3C[C@@H]12 [TETRACYCLINE]
- MIC [4]: > 8 µg/mL

Molecule: NCC[C@H](O)C(=O)N[C@@H]1C[C@H](N)[C@@H](O[C@H]2O[C@H](CN)[C@@H](O)[C@H](O)[C@H]2O)[C@H](O)[C@H]1O[C@H]1O[C@H](CO)[C@@H](O)[C@H](N)[C@H]1O [AMIKACIN]
- MIC [4]: > 32 µg/mL

Molecule: CO/N=C(\C(=O)N[C@@H]1C(=O)N2C(C(=O)[O-])=C(C[N+]3(C)CCCC3)CS[C@H]12)c1csc(N)n1
- MIC [2]: 0.5 µg/mL (≈ 1.04 µM)
- MIC [3]: 0.032 µg/mL (≈ 0.0666 µM)
- MIC [4]: > 16 µg/mL

Molecule: POLYMYXIN B
- MIC [4]: 1 µg/mL

Molecule: C[C@@H](O)[C@H]1C(=O)N2C(C(=O)O)=C(S[C@@H]3CN[C@H](CNS(N)(=O)=O)C3)[C@H](C)[C@H]12 [DORIPENEM]
- MIC [4]: 4 µg/mL (≈ 9.51 µM)

Molecule: CO[C@@]1(NC(=O)Cc2cccs2)C(=O)N2C(C(=O)O)=C(COC(N)=O)CS[C@@H]21 [CEFOXITIN]
- Ratio [1]: >6
- MIC [2]: > 256 µg/mL
- MIC [3]: 4 µg/mL (≈ 9.36 µM)
- MIC [4]: > 16 µg/mL
- MIC [5]: 8 µg/mL (≈ 18.7 µM)

Molecule: C[C@@H](O)[C@H]1C(=O)N2C(C(=O)O)=C(SCCNC=N)C[C@H]12 [IMIPENEM ANHYDROUS]
- MIC [2]: 0.5 µg/mL (≈ 1.67 µM)
- MIC [4]: 8 µg/mL (≈ 26.7 µM)

Molecule: CCN1CCN(C(=O)N[C@@H](C(=O)N[C@@H]2C(=O)N3[C@@H]2SC(C)(C)[C@@H]3C(=O)O)c2ccccc2)C(=O)C1=O [PIPERACILLIN]
- MIC [2]: 4 µg/mL (≈ 7.73 µM)
- MIC [3]: 2 µg/mL (≈ 3.86 µM)
- MIC [6]: > 64 µg/mL
- MIC [4]: > 64 µg/mL
- MIC [5]: 8 µg/mL (≈ 15.5 µM)

Molecule: CO/N=C(\C(=O)N[C@@H]1C(=O)N2C(C(=O)O)=C(COC(C)=O)CS[C@H]12)c1csc(N)n1 [CEFOTAXIME]
- MIC [2]: 4 µg/mL (≈ 8.78 µM)
- MIC [3]: 0.064 µg/mL (≈ 0.141 µM)
- MIC [5]: 2 µg/mL (≈ 4.39 µM)

Molecule: CO/N=C(\C(=O)N[C@@H]1C(=O)N2C(C(=O)O)=C(CSc3nc(=O)c(O)nn3C)CS[C@H]12)c1csc(N)n1 [CEFTRIAXONE]
- MIC [4]: > 32 µg/mL

Molecule: GENTAMICIN
- MIC [4]: 8 µg/mL

Molecule: Cc1nnc(SCC2=C(C(=O)O)N3C(=O)[C@@H](NC(=O)Cn4cnnn4)[C@H]3SC2)s1 [CEFAZOLIN]
- Ratio [1]: 4
- MIC [2]: > 256 µg/mL
- MIC [3]: 2 µg/mL (≈ 4.4 µM)
- MIC [4]: > 16 µg/mL
- MIC [5]: 32 µg/mL (≈ 70.4 µM)

Molecule: CC(C)(O/N=C(\C(=O)N[C@@H]1C(=O)N2C(C(=O)[O-])=C(C[n+]3ccccc3)CS[C@H]12)c1csc(N)n1)C(=O)O [CEFTAZIDIME]
- MIC [2]: 4 µg/mL (≈ 7.32 µM)
- MIC [3]: 0.125 µg/mL (≈ 0.229 µM)
- MIC [4]: > 16 µg/mL
- MIC [5]: 16 µg/mL (≈ 29.3 µM)

Molecule: C[C@@H](O)[C@H]1C(=O)N2C(C(=O)O)=C(S[C@@H]3CN[C@H](C(=O)N(C)C)C3)[C@H](C)[C@H]12 [MEROPENEM]
- MIC [2]: 0.125 µg/mL (≈ 0.326 µM)
- MIC [3]: 0.032 µg/mL (≈ 0.0834 µM)
- MIC [4]: 8 µg/mL (≈ 20.9 µM)
- MIC [5]: 0.064 µg/mL (≈ 0.167 µM)

Molecule: O=C(O)c1cn(C2CC2)c2cc(N3CCNCC3)c(F)cc2c1=O [CIPROFLOXACIN]
- MIC [4]: 0.06 µg/mL (≈ 0.181 µM)

Molecule: NC[C@H]1O[C@H](O[C@H]2[C@H](O)[C@@H](O[C@H]3O[C@H](CO)[C@@H](O)[C@H](N)[C@H]3O)[C@H](N)C[C@@H]2N)[C@H](N)C[C@@H]1O [TOBRAMYCIN]
- MIC [4]: > 16 µg/mL
